Measurements published in patent US8802597B2, “Herbicidal pyrimidines” (E I du Pont de Nemours and Company, priority 2003, dated 2014).

Assays:
Test in all cases: Test C pre/postemergence
Format in all cases: in vivo
[1] = test system: corn (Zea mays); conditions: for Corn plant response rating: scale 0 to 100 (0 no effect, 100 complete control)
Procedure, shortened: (§1)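 Greenhouse pot test: seeds treated preemergence, or plants at 2–18 cm (1- to 4-leaf stage) treated postemergence, with compound in non-phytotoxic solvent plus surfactant. Visual rating versus untreated controls after 12–14 days, scale 0 (no effect) to 100 (complete control); dash means not tested.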

[2] = test system: goosegrass (Eleusine indica); conditions: for Goosegrass plant response rating: scale 0 to 100 (0 no effect, 100 complete control)
Procedure, shortened: as §1

[3] = test system: yellow nutsedge (Cyperus esculentus); conditions: for Nutsedge, Yellow plant response rating: scale 0 to 100 (0 no effect, 100 complete control)
Procedure, shortened: as §1

[4] = test system: pigweed (Amaranthus retroflexus); conditions: for Pigweed plant response rating: scale 0 to 100 (0 no effect, 100 complete control)
Procedure, shortened: as §1

[5] = test system: common (oilseed) sunflower (Helianthus annuus); conditions: Preemergence
Procedure, shortened: as §1

[6] = test system: cocklebur (Xanthium strumarium); conditions: for Cocklebur plant response rating: scale 0 to 100 (0 no effect, 100 complete control)
Procedure, shortened: as §1

[7] = test system: velvetleaf (Abutilon theophrasti); conditions: for Velvetleaf plant response rating: scale 0 to 100 (0 no effect, 100 complete control)
Procedure, shortened: as §1

[8] = test system: common ragweed (Ambrosia elatior); conditions: for Ragweed plant response rating: scale 0 to 100 (0 no effect, 100 complete control)
Procedure, shortened: as §1

[9] = test system: crabgrass (Digitaria sanguinalis); conditions: for Crabgrass plant response rating: scale 0 to 100 (0 no effect, 100 complete control)
Procedure, shortened: as §1

[10] = test system: kochia (Kochia scoparia); conditions: for Kochia plant response rating: scale 0 to 100 (0 no effect, 100 complete control)
Procedure, shortened: as §1

[11] = test system: lambsquarters (Chenopodium album); conditions: for Lambsquarters plant response rating: scale 0 to 100 (0 no effect, 100 complete control)
Procedure, shortened: as §1

[12] = test system: Surinam grass (Brachiaria decumbens); conditions: for Surinam Grass plant response rating: scale 0 to 100 (0 no effect, 100 complete control)
Procedure, shortened: as §1

[13] = Postemergence, 250 g ai/ha, scale 0 to 100
[14] = Postemergence, 500 g ai/ha, scale 0 to 100
[15] = Preemergence, 62 g ai/ha, scale 0 to 100, 0 no effect, 100 complete control
[16] = Preemergence, 125 g ai/ha, scale 0 to 100
[17] = Preemergence, 250 g ai/ha, scale 0 to 100
[18] = Preemergence, 500 g ai/ha, scale 0 to 100

CCCOC(=O)c1nc(C2CC2)nc(N)c1Br [Compound 15]
Corn plant response rating ([1]; Postemergence, 62 g ai/ha): 15
Corn plant response rating ([1]; Postemergence, 125 g ai/ha): 15
Plant response rating, Corn [1, 13]: 55
Plant response rating, Corn [1, 14]: 75
Plant response rating, Corn [1, 15]: 0
Plant response rating, Corn [1, 16]: 15
Plant response rating, Corn [1, 17]: 45
Plant response rating, Corn [1, 18]: 60
Goosegrass plant response rating ([2]; Postemergence, 62 g ai/ha): 0
Goosegrass plant response rating ([2]; Postemergence, 125 g ai/ha): 0
Plant response rating, Goosegrass [2, 13]: 40
Plant response rating, Goosegrass [2, 14]: 55
Plant response rating, Goosegrass [2, 15]: 0
Plant response rating, Goosegrass [2, 16]: 0
Plant response rating, Goosegrass [2, 17]: 0
Plant response rating, Goosegrass [2, 18]: 0
Nutsedge, Yellow plant response rating ([3]; Postemergence, 62 g ai/ha): 0
Nutsedge, Yellow plant response rating ([3]; Postemergence, 125 g ai/ha): 0
Plant response rating, Nutsedge, Yellow [3, 13]: 0
Plant response rating, Nutsedge, Yellow [3, 14]: 0
Plant response rating, Nutsedge, Yellow [3, 15]: 0
Plant response rating, Nutsedge, Yellow [3, 16]: 0
Plant response rating, Nutsedge, Yellow [3, 17]: 0
Plant response rating, Nutsedge, Yellow [3, 18]: 20
Pigweed plant response rating ([4]; Postemergence, 62 g ai/ha): 65
Pigweed plant response rating ([4]; Postemergence, 125 g ai/ha): 70
Plant response rating, Pigweed [4, 13]: 85
Plant response rating, Pigweed [4, 14]: 100
Plant response rating, Pigweed [4, 15]: 90
Plant response rating, Pigweed [4, 16]: 100
Plant response rating, Pigweed [4, 17]: 100
Plant response rating, Pigweed [4, 18]: 100
Plant response rating, Sunflower ([5]; 62 g ai/ha, scale 0 to 100, 0 no effect, 100 complete control): 65
Plant response rating, Sunflower ([5]; 125 g ai/ha, scale 0 to 100): 100
Plant response rating, Sunflower ([5]; 250 g ai/ha, scale 0 to 100): 100
Plant response rating, Sunflower ([5]; 500 g ai/ha, scale 0 to 100): 100
Cocklebur plant response rating ([6]; Postemergence, 62 g ai/ha): 85
Cocklebur plant response rating ([6]; Postemergence, 125 g ai/ha): 100
Plant response rating, Cocklebur [6, 13]: 100
Plant response rating, Cocklebur [6, 14]: 100
Plant response rating, Cocklebur [6, 15]: 65
Plant response rating, Cocklebur [6, 16]: 90
Plant response rating, Cocklebur [6, 17]: 100
Plant response rating, Cocklebur [6, 18]: 100
Velvetleaf plant response rating ([7]; Postemergence, 62 g ai/ha): 65
Velvetleaf plant response rating ([7]; Postemergence, 125 g ai/ha): 70
Plant response rating, Velvetleaf [7, 13]: 85
Plant response rating, Velvetleaf [7, 14]: 90
Plant response rating, Velvetleaf [7, 15]: 80
Plant response rating, Velvetleaf [7, 16]: 95
Plant response rating, Velvetleaf [7, 17]: 100
Plant response rating, Velvetleaf [7, 18]: 100
Ragweed plant response rating ([8]; Postemergence, 62 g ai/ha): 75
Ragweed plant response rating ([8]; Postemergence, 125 g ai/ha): 85
Plant response rating, Ragweed [8, 13]: 90
Plant response rating, Ragweed [8, 14]: 95
Plant response rating, Ragweed [8, 15]: 90
Plant response rating, Ragweed [8, 16]: 95
Plant response rating, Ragweed [8, 17]: 100
Plant response rating, Ragweed [8, 18]: 100
Crabgrass plant response rating ([9]; Postemergence, 62 g ai/ha): 15
Crabgrass plant response rating ([9]; Postemergence, 125 g ai/ha): 45
Plant response rating, Crabgrass [9, 13]: 65
Plant response rating, Crabgrass [9, 14]: 80
Plant response rating, Crabgrass [9, 15]: 0
Plant response rating, Crabgrass [9, 16]: 95
Plant response rating, Crabgrass [9, 17]: 95
Plant response rating, Crabgrass [9, 18]: 100
Kochia plant response rating ([10]; Postemergence, 62 g ai/ha): 95
Kochia plant response rating ([10]; Postemergence, 125 g ai/ha): 95
Plant response rating, Kochia [10, 13]: 100
Plant response rating, Kochia [10, 14]: 100
Plant response rating, Kochia [10, 15]: 95
Plant response rating, Kochia [10, 16]: 100
Plant response rating, Kochia [10, 17]: 100
Plant response rating, Kochia [10, 18]: 100
Lambsquarters plant response rating ([11]; Postemergence, 62 g ai/ha): 100
Lambsquarters plant response rating ([11]; Postemergence, 125 g ai/ha): 100
Plant response rating, Lambsquarters [11, 13]: 100
Plant response rating, Lambsquarters [11, 14]: 100
Plant response rating, Lambsquarters [11, 15]: 95
Plant response rating, Lambsquarters [11, 16]: 100
Plant response rating, Lambsquarters [11, 17]: 100
Plant response rating, Lambsquarters [11, 18]: 100
Surinam Grass plant response rating ([12]; Postemergence, 62 g ai/ha): 0
Surinam Grass plant response rating ([12]; Postemergence, 125 g ai/ha): 20
Plant response rating, Surinam Grass [12, 13]: 55
Plant response rating, Surinam Grass [12, 14]: 65
Plant response rating, Surinam Grass [12, 15]: 15
Plant response rating, Surinam Grass [12, 16]: 65
Plant response rating, Surinam Grass [12, 17]: 75
Plant response rating, Surinam Grass [12, 18]: 95
